The test system of test [1] is VEGF i-motif DNA. In words: I-motif DNA binding, UV-visible absorbance. Further details: species or system human. The source says:
(§1) I-motifs are four stranded antiparallel cytosine rich DNA sequences capable of forming at telomere and promotor regions of genomic DNA.[41,42] […] Due to the presence of potential i-motif forming sequences in 69% of promoter regions in human oncogenes, they are postulated to play a key role in oncogene expression regulation.[44] VEGF and c-myc i-motif sequences are prevalent in oncogene promotor regions in many cancers including breast cancer and as such their ligands have potential anticancer roles.[45] The natural flavonol, fisetin, is reported to specifically bind to VEGF i-motif DNA and regulate its function by stabilizing its hairpin structure.[31] […] In continuation of our investigation of the effects of Ru metal complexation on the different biological activities of flavonoids, interactions with VEGF and c-myc i-motif DNA were studied using UV-vis spectroscopic techniques. […] However, 2Ru's addition led to a 1 nm hypsochromic shift of VEGF i-motif absorbance maximum from 272 to 271 nm. On the other hand, addition of the 4-oxo flavone (1) and its Ru complex (1Ru) led to minor changes in λmax of both sequences that was hypochromic (5% and 3%) with VEGF and hyperchromic (2% and 5%) in case of c-myc (Fig. 8).
(§2) UV-visible absorbance measurements and DNA UV melting studies were performed on a Cary 300 C (Varian USA) UV-visible spectrophotometer. VEGF and c-myc i-motif DNA (5′-3′ sequences ([…]) and ([…]), respectively) were purchased from Sigma-Aldrich (Gillingham, UK) and used without further purification. Na cacodylate buffer (20 mM, pH 5.5) was used for both i-motifs. DNA concentrations were determined by measuring the absorbance at 260 nm after melting using the molar extinction coefficient supplied by the manufacturer. VEGF and c-myc i-motifs were prepared for experiments by diluting with buffer solution, annealed with or without the flavonoid at 95 °C for 5 min then gently cooled to room temperature. The stock solutions of the test compounds (20 mM) were prepared in 100% sterile DMSO. These stocks were then appropriately diluted with HPLC grade water and DMSO levels were maintained below 0.1% in the test concentrations.
(§3) UV-visible absorbance measurements and UV melting studies of either free i-motifs (VEGF or c-myc), free flavone (1, 1Ru, 2 or 2Ru) or both i-motif DNA and flavone (2 μM: 2 μM) were recorded using 1.0 cm matched quartz cuvettes. First spectra were recorded in the range of 200–500 nm to determine the relevant wavelength range were no peaks were observed above 320 nm. […] UV-visible absorbance was measured at 25 °C while melting curves were collected at a heating rate of 1 °C min^−1 from 20 to 90 °C. Tm was calculated by non-linear fitting of the sigmoidal curve obtained at 295 nm.

Test [2] relates to c-myc i-motif DNA. In words: I-motif DNA binding, UV-visible absorbance. Further details: species or system human. The settings on record: DNA : flavonoid 2 μM : 2 μM, pH 5.5, 25 °C.
From the text: as §1, §2, §3

Test [3] concerns VEGF i-motif DNA. In words: I-motif DNA UV melting (thermal stability). It counts as binding, human. The conditions noted are these: for Tm: VEGF i-motif with flavone at 1 : 1 ratio, 295 nm, free DNA 46 °C; for ΔTm: ΔTm = Tm (DNA-flavone) − Tm (DNA).
From the text: (§4) The effect of this set of flavones on VEGF and c-myc was further evaluated via thermal stability measurements. Stabilizing/destabilizing the promotor i-motif structures is often reported to regulate expression of the corresponding genes, which for VEGF and c-myc could have detrimental effects on cancer growth and propagation.[48] As observed in Fig. 9, effects of the test flavones on the thermal stability of the VEGF and c-myc i-motif sequences were generally marginal and in agreement with λmax chromophoric shifts. […] Compound 1 destabilized VEGF i-motif in contrast to stabilizing the c-myc one. This mirrored the trend of a higher chromophoric shift observed for flavone 1 with VEGF i-motif sequence that also differed in pattern (hypochromic) from the shift witnessed with the c-myc sequence (hyperchromic). These findings could indicate higher selectivity of the 4-oxo derivative (1) towards VEGF i-motif based on an intercalative binding mode especially that hypochromic shifts are reported with DNA intercalation.[49,50] […] In this regard, the highest i-motif activity seen for the parent flavonoids was switched from VEGF to c-myc with compound 1 and vice versa with compound 2 upon Ru chelation. This emphasizes the key role of the interplay between the substitution at position 4 and metal complexation on the interaction with biological targets.
as §2, §3

Test [4] has as its system c-myc i-motif DNA. In words: I-motif DNA UV melting (thermal stability). It counts as binding, human. The conditions noted are these: for Tm: c-myc i-motif with flavone at 1 : 1 ratio, 295 nm, free DNA 45 °C; for ΔTm: c-myc i-motif, 1 : 1 ratio, ΔTm = Tm (DNA-flavone) − Tm (DNA).
From the text: as §4, §2, §3

The next test has as its system HUVECs. In words: Matrigel endothelial cell tube formation assay (VEGF-mediated). The test is classed as cell-based, human. The conditions noted are these: 12 h; for tube formation inhibition activity: 1 μM. The protocol: In our recent study,[30] the 4′-chlorophenylflavone derivatives 1 and 2 have shown promising antiangiogenic activities in vitro. Herein, the effect of complexation with a ruthenium(II) metal ligand on the antiangiogenic activity of 1 and 2 was evaluated using the Matrigel tube formation assay that assesses many of the main steps involved in the process of angiogenesis. Inhibition of VEGF-mediated tube formation by the tested substrates was observed after 12 h of treatment on HUVECs at 1 μM and 10 μM concentrations. Luteolin is a natural flavone well known for its high antiangiogenic activity both in vitro and in vivo[34] and as such was used in this study as a reference standard. In accordance with reported data, luteolin inhibited the measured elements of tube formation by 30% compared to the positive control.[34,35] […] The ability of Ru(II) organometallic derivatives to target tumour metastasis has been widely reported both in vitro and in vivo.[3,6,9,36] Thus, based on the preliminary antiangiogenic trends observed for our target Ru(II) complexes (1Ru and 2Ru) and their parent flavones (1 and 2), we further investigated their antiproliferative and antimetastatic potential on the estrogen receptor positive breast cancer cell line (MCF-7) and the more aggressive triple negative cell line (MDA-MB-231).
HUVECs were cultured until confluency and then serum starved (0.1% serum) for 24 h. The tube formation assay followed the reported assay.[56] Briefly, 96 well plates were coated with 50 μL of Corning™ Matrigel™ GFR Membrane Matrix at 4 °C and incubated at 37 °C for 1–2 h to solidify. Serum starved HUVECs were seeded on the solidified Matrigel at 3 × 10^5 cells per mL and treated with medium containing VEGF (10 ng mL^−1) and either luteolin or one of the synthesised derivatives (at 1 μM or 10 μM). Plates were incubated for 12 h and photos covering the whole well area were taken using 4× magnification power of an inverted light microscope. Number of junctions, number and length of segments and master segments were quantified from the taken Images via the Angiogenesis Analyzer plugin[57] in ImageJ software.[58] […] Data was represented as a ratio to the positive control (VEGF enriched).

Where [5] appears, read: DNA : flavonoid 2 μM : 2 μM, pH 5.5, 25 °C.

The text below walks through data of article PMC9945865, “Anticancer evaluation of new organometallic ruthenium(II) flavone complexes” (RSC Medicinal Chemistry, 2022).

As a reminder, the ΔTm is the shift of the melting midpoint relative to a reference.

As to `Cc1ccc(C(C)C)cc1.O=c1cc(-c2ccc(Cl)cc2)oc2cc(O)cc([O-])c12.[Cl-].[Ru+2]` [1Ru, chlorido [(5-oxo-κO)-7-hydroxy-2-(4′-chlorophenyl)-4H-chromen-4-onato-κO] (η^6-p-cymene)ruthenium(II)], the “hypochromic change at λmax” value in the test on VEGF i-motif DNA [1] (setting [5]) was 3%. Also, the “hyperchromic shift (increase) at absorbance maximum λmax” value in the test with c-myc i-motif DNA [2] is 5%. The Tm with VEGF i-motif DNA [3] worked out at 47 °C; in the test on c-myc i-motif DNA [4], 48 °C. Moreover, the ΔTm in the test on VEGF i-motif DNA [3] (VEGF i-motif, 1 : 1 ratio) was determined as 1 °C; in the test on c-myc i-motif DNA [4], 3 °C. The “tube formation inhibition activity” value with HUVECs is reported as “total loss of their parents' tube formation inhibition activity”. The “overall tube formation inhibition” value in the test on HUVECs (10 μM, insignificant (p > 0.05)) stood at 22%.
For `Cc1ccc(C(C)C)cc1.[Cl-].[O-]c1cc(O)cc2oc(-c3ccc(Cl)cc3)cc(=S)c12.[Ru+2]` [2Ru, chlorido [(5-oxo-κO)-7-hydroxy-2-(4′-chlorophenyl)-4H-chromen-4-thionato-κO] (η^6-p-cymene)ruthenium(II)], the “hyperchromic shift (increase) at absorbance maximum λmax” value is recorded as 2% in the test with VEGF i-motif DNA [1] (setting [5]) and 8% with c-myc i-motif DNA [2]. Also, the “hypsochromic shift of absorbance maximum” value with VEGF i-motif DNA [1] (from 272 to 271 nm, 1 : 1 ratio) stood at 1 nm. The Tm came to 42 °C in the test with VEGF i-motif DNA [3] and 44 °C in the test on c-myc i-motif DNA [4]. For the same molecule, the “decrease in the i-motif's transition temperature (Tm)” value in the test on VEGF i-motif DNA [3] (VEGF i-motif, 1 : 1 ratio) is 4 °C. Moreover, the ΔTm in the test with VEGF i-motif DNA [3] (VEGF i-motif, 1 : 1 ratio) is −4 °C; in the test with c-myc i-motif DNA [4], −1 °C. Also, in the test with HUVECs, the “tube formation inhibition activity” value was “total loss of their parents' tube formation inhibition activity”. Moreover, the “reduction in the number of junctions” value in the test on HUVECs (10 μM, p < 0.01) was 40%. Also, the “reduction in number and length of master segments” value in the test with HUVECs (10 μM, p < 0.05) was determined as 35%.
